Here are results for three compounds from patent publication US20210205225A1, “BIOAVAILABLE ORAL DOSAGE FORMS” (PTC Therapeutics, Inc., priority 2018, published 2021).

A short description of series [1]: Solubility of the SDI and a surfactant (5% w/w) in aqueous solution, saturated, RT. It is filed as physicochemical. The procedure: Aqueous suspensions (5% w/w) of the crystalline Compound 1b and the amorphous SDI were prepared in saturated solutions with surfactants selected from SDS, Poloxamer 188, Poloxamer 407, Gelucire 44/14 and Gelucire 50/13.
The solution was not sufficiently translucent to determine when sufficient material was added to provide the saturated solution. As a result, the solution was allowed to stand so that the excess Gelucire settled, and the supernatant was recovered and used for the solubility study. The exact concentration of Gelucire 50/13 in the solution was unknown.

A short description of series [2]: Phase 1 single-dose lipid capsule study, safety and tolerability. It is filed as in vivo, human. The text has this: (§1) Compound 1 has been evaluated in a Phase 1, randomized, placebo-controlled, escalating, single-dose, safety, tolerability, PK, and food effect study in healthy adult volunteers. Compound 1 was provided in lipid-filled gelatin capsules. The primary objective of the study was to determine a dose range for Compound 1 that safely achieved pharmacologically active target plasma concentrations (as determined from xenograft studies) and that was appropriate for use in a subsequent multiple-dose study.
(§2) Subjects in the study were enrolled in 2 stages. In Stage 1, 40 subjects were accrued in 5 cohorts of 8 subjects with each cohort receiving a sequentially higher single dose of Compound 1 at dose levels of 0.03, 0.1, 0.3, 1, and 3 mg/kg. Within a cohort, 6 subjects (3 males and 3 females) received Compound 1 and 2 subjects (1 male and 1 female) received placebo. An additional 12 subjects (6 males and 6 females) were enrolled in Stage 2 to evaluate the effect of food on the PK of Compound 1.
(§3) During both Stages 1 and 2 of the study, data regarding adverse events, vital signs, blood counts, coagulation assessments, blood chemistry determinations, urinalyses, and ECGs were collected at baseline and repeatedly over 72 hours after administration of the study medication, and again at a follow-up visit 7 days after the last study treatment. In both Stages 1 and 2, blood samples for assessment of plasma Compound 1 concentrations were collected at multiple timepoints. Compound 1 concentrations were analyzed using LC-MS/MS, validated for human plasma. Blood for measurement of plasma DHODH levels are collected at multiple time points. Plasma DHODH concentrations are analyzed using a clinically validated ELISA (R&D Systems). Similarly, blood for measurement of plasma VEGF-A levels was collected at multiple time points. Plasma VEGF-A concentrations were analyzed using a clinically validated ELISA (R&D Systems).

Series [3] in a line: Phase 1 single-dose lipid capsule PK and food effect study. It is filed as in vivo, human.
Excerpt: as §1, §2, §3

Series [4] in a line: Clinical BA/BE and food effect study, PVP SDI Formulation tablets vs Lipid Formulation capsules, PK. It is filed as in vivo, human. As to the method:
The PVP SDI Formulation tablets prepared in Example 13 were compared to the Lipid Formulation capsules prepared in Example 7 in a clinical BA/BE (bioequivalence/bioavailability) study that evaluated the effect of food on the bioavailability of the PVP SDI Formulation tablets.
(§4) Compound 1 was administered as a single-dose in Lipid Formulation capsules or as PVP SDI Formulation tablets. The primary objective of the study was to determine the comparative single-dose PK and safety profiles of Compound 1 administered in the 2 formulations. The study was also aimed to study of the food effect on the PK and safety profiles for the PVP SDI Formulation tablet.
(§5) Subjects in the study were enrolled in 3 stages. In Stage 1, 24 subjects were randomly accrued into 3 cohorts of 8 subjects receiving Compound 1 in both the Lipid Formulation capsule and the PVP SDI Formulation tablet at dose levels of 0.5 mg/kg, 1 mg/kg, and 2 mg/kg. In Stage 2, 24 subjects were accrued in 3 cohorts of 8 subjects with each cohort receiving a sequentially higher doses of Compound 1 in the PVP SDI Formulation tablet at dose levels of 400, 800, and 1600 mg. An additional 12 subjects (6 males and 6 females) were enrolled in Stage 3 to evaluate the effect of food on the PK of Compound 1 when administered at 400 mg and 1000 mg in the PVP SDI Formulation tablet.
(§6) During the study, data regarding adverse events, vital signs, blood counts, coagulation assessments, blood chemistry determinations, urinalyses, and ECGs were collected at baseline and repeatedly over 72 hours after administration of the study medication, and again at a follow-up visit 7 days after the last study treatment. Blood samples for assessment of plasma Compound 1 concentrations were collected at multiple timepoints. Compound 1 concentrations were analyzed using LC-MS/MS, validated for human plasma.

The nature of series [5]: Clinical BA/BE and food effect study, safety. It is filed as in vivo, human. As to the method: as §4, §5, §6
[6] abbreviates: saturated in 5% w/w Gelucire 44/14 aqueous solution, 0 hrs.
Where [7] appears, read: saturated in 5% w/w Gelucire 44/14 aqueous solution, 24 hrs.
Setting [8] is: saturated in 5% w/w Poloxamer 188 aqueous solution, 0 hrs.
The mark [9] stands for this setting: saturated in 5% w/w SDS aqueous solution, 0 hrs.
Setting [10] is: saturated in 5% w/w SDS aqueous solution, 24 hrs.
[11] abbreviates: saturated in Gelucire 50/13 supernatant solution, 0 hrs.
Where [12] appears, read: saturated in Gelucire 50/13 supernatant solution, 24 hrs.
[13] abbreviates: solid formulation, higher doses.

≈ marks a conversion by molar mass, not a printed value.

In general, solubility refers to the dissolved amount per volume that the medium holds. What is called Solubility is the concentration that dissolves in the medium under given conditions. A high value points to much dissolved substance. As to `COc1ccc([C@H]2c3[nH]c4ccc(Cl)cc4c3CCN2C(=O)Oc2ccc(Cl)cc2)cc1` [Sample 2], the solubility at 24 h in series [1] (5% w/w Poloxamer 188 aqueous solution, aqueous with cosolvent or surfactant or cyclodextrin, thermodynamic from solid, saturated in 5% w/w Poloxamer 188 aqueous solution, 24 hrs) came out at 4.3 µg/mL (≈ 9.2 µM). For the same compound, the Solubility in series [1] (setting [6]) stood at 142.5 µg/mL (≈ 305 µM); in series [1] (setting [7]) it was 58.4 µg/mL (≈ 125 µM); in series [1] (setting [8]), 0.7 µg/mL (≈ 1.5 µM); in series [1] (setting [9]), 224.7 µg/mL (≈ 481 µM); in series [1] (setting [10]), 32.4 µg/mL (≈ 69.3 µM); in series [1] (setting [11]) it was 677.4 µg/mL (≈ 1450 µM). This compound showed a Solubility in series [1] (setting [12]) of 371.5 µg/mL (≈ 795 µM).
As to `COc1ccc([C@H]2c3[nH]c4ccc(Cl)cc4c3CCN2C(=O)Oc2ccc(Cl)cc2)cc1` [Compound 1, 4-chlorophenyl (S)-6-chloro-1-(4-methoxyphenyl)-1,3,4,9-tetrahydro-2H-pyrido[3,4-b]indole-2-carboxylate], the “treatment-emergent adverse event: nausea, subjects receiving Compound 1” value in series [2] (Stage 1) was 4 subjects. Moreover, the “treatment-emergent adverse event: headache” value in series [2] (Stage 1, 40 subjects dosed) turned out to be 9 episodes in 8 subjects. Further, the “adverse event: back pain” value in series [2] (Stage 2) is listed as 2 episodes in 2 subjects. The “adverse event: headaches” value in series [2] (Stage 2) is on record as 3 episodes in 3 subjects. In series [2] (all except 1 case of Grade 2 diarrhea at 1 mg/kg fasted, Stage 2), the “severity of adverse events” value was “Grade 1”. In addition, the “hematology, coagulation, chemistry parameters” value in series [2] (both stages) is on record as “No clinically significant changes”. The “physical examinations, vital sign measurements, ECGs” value in series [2] (both stages) and in series [5] (all 3 stages) was “no safety concerns” in each case. The “deaths or serious adverse events” value in series [2] (in vivo) is reported as “No deaths or serious adverse events”; in series [5] (human, in vivo), “No deaths or serious adverse events”. For the same compound, the tolerability entry in series [2] (single dose, lipid capsules) is “generally well tolerated”; in series [5] (single dose, lipid capsules or PVP SDI tablets), “generally well tolerated”. Further, the “increases in mean Cmax values with dose” value in series [3] (Stage 1, 0.03-3 mg/kg) is listed as “generally dose proportional”. The “increase of mean Cmax by high-fat, high-calorie meal” value in series [3] (Stage 2, 1 mg/kg) was “about 40%”. Also, the Tmax in series [3] (both sexes, human, plasma, oral, lipid capsules, single dose) lay in the range of 3 to 6 h; in series [4] (human, plasma, oral, single dose), 3 to 7 h. In addition, the half-life in series [3] (both sexes, human, plasma, oral, lipid capsules, single dose, read-out: terminal half-life (t1/2β)) lay within 28 to 56 h; in series [4] (human, plasma, oral, PVP SDI Formulation tablet, Stage 2), 38 to 65 h. Also, in series [3] (lipid capsules, 3.0-mg/kg dose), the “low concentrations still evident in plasma” value is at least 168 h. Further, the “persistence of concentrations in plasma” value was at least 72 h in series [3] (lipid capsules, doses 0.30 mg/kg) and at least 72 h in series [4] (setting [13]). For the same compound, the “mean Cmax after a high-fat, high-calorie meal” value in series [3] (lipid capsules, fed vs fasted) is recorded as “increased”; in series [4] (PVP SDI Formulation tablet, fed vs fasted), “increased”. For the same compound, the “lag time to appearance in plasma” value in series [3] (lipid-filled gelatin capsules, single dose) is “about 30 minutes”; in series [4] (setting [13]), “about 30 minutes”. The “increase of mean Cmax and AUC by high-fat, high-calorie meal” value in series [4] (Stage 3, 400 mg or 1000 mg, PVP SDI Formulation tablet) is given as “about 100%”. Moreover, the “concentrations still evident in plasma” value in series [4] (setting [13]) was at least 168 h. Moreover, the “laboratory abnormality in 1 subject” value in series [5] (Stage 1, 2 mg/kg in the Lipid Capsule Formulation, considered unlikely to be drug related) is given as “Grade 3 elevation of serum creatine kinase”.
For `COc1ccc([C@H]2c3[nH]c4ccc(Cl)cc4c3CCN2C(=O)Oc2ccc(Cl)cc2)cc1` [Compound 1b], the Solubility in series [1] (setting [6]) was 14.7 µg/mL (≈ 31.5 µM); in series [1] (setting [7]) it was 23.6 µg/mL (≈ 50.5 µM); in series [1] (setting [8]), 0.2 µg/mL (≈ 0.428 µM); in series [1] (setting [9]), 2.4 µg/mL (≈ 5.14 µM); in series [1] (setting [10]) it was 6.2 µg/mL (≈ 13.3 µM); in series [1] (setting [11]), 7.8 µg/mL (≈ 16.7 µM). This compound had a Solubility in series [1] (setting [12]) of 23.0 µg/mL (≈ 49.2 µM).
